Source: US6872716B2, “Antipsychotic sulfonamide-heterocycles, and methods of use thereof” (Sepracor, Inc., priority 2000, dated 2005)
One block for each compound: values may come before it.

Assays:
[1] = target: NMDA (PCP site); assay: NMDA receptor (PCP site) radioligand binding screen
Procedure: (§1) The NMDA receptor (PCP site) screen was conducted according to Goldman, M. E. et al. FEBS Letters 85, […]. The norepinephrine transporter screen was conducted according to Galli A et al. J. Exp. Biol. 1995, 198, 2197. The dopamine and serotonin transporter screens were conducted according to Gu, H. et al. J. Biol. Chem. 1994, 269(10), 7124. The sigma-1 screen was conducted according to de Costa B. R. FEBS 1989, 251, 53.

[2] = target: Sigma-1 (human) (Homo sapiens, UniProt Q99720); assay: sigma-1 radioligand binding screen
Sigma-1 (human), sequence (Q99720 whole entry): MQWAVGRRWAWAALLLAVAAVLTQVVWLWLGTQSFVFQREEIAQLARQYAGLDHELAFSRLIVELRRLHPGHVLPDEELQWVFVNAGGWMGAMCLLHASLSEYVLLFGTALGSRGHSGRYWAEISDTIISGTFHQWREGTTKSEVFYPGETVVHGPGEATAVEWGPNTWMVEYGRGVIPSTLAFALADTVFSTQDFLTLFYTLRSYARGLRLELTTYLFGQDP
Procedure: as §1

[3] = tested on: rats; assay: learned helplessness test in rats; assay type: in vivo, rat; conditions: male Wistar rats; dose of 5 mg/kg i.p.
Procedure: The objective of this study was to evaluate the potential antidepressant activity of compounds in the learned helplessness test in rats.
Male rats (Wistar, Iffa Credo, St.-Germain/1″Arbresle, France) with initial weight of 180-200 g at the beginning of the experiments were housed 3 per cage under dark cycle of 12 h-12 h (light on at 7:00 a.m., off at 7:00 p.m.) at a room temperature of 21±1° C., with a minimum 50% humidity, for a minimum of 7 days before the experiments. They had free access to commercial rat chow (UFAC, Vigney, France, ref 811002) and tap water. The learned helplessness test included two phases over 5 days.
Phase 1: Helplessness induction
On day 1, inescapable electric foot-shocks were delivered individually to rats in a Plexiglas chamber (20 cm×16 cm×16 cm [1×w×h]) with a floor consisting of stainless-steel rods. A constant-current shocker (LETICA LI 100-26, Barcelona, Spain) was used to deliver inescapable shocks (0.8 m A scrambled DC current; 10 s duration every 20 s) over 60 minutes. “Non-helplessness” control rats were placed for 1 h in identical chambers without shocking.
Phase 2: Conditional Avoidance Training
Avoidance training in automated two-way shuttle-box (LETICA LI916, Barcelona, Spain) took place on day 3, 4, and 5. The shuttle-box is divided into two equal-sized chambers connected by a 10×10 cm opening. […]

[4] = tail flick model (in vivo analgesia); conditions: iv; administered intravenously
Procedure: (§2) The acetic acid writhing model was conducted according to Inoue K. et al. Arzneim. Forsch 1991, 41(I), 235. The formalin model was conducted according to Hunskaar, S. et al. J. Neurosci Meth. 1985, 14, 69. The tail flick model was conducted according to D'Amour F. E. and Smith D. L. J. Pharmacol. Exp. Ther. 1941, 72, 74. Compound 6 was administered intravenously.

[5] = formalin model (in vivo analgesia); conditions: iv; administered intravenously
Procedure: as §2

[6] = acetic acid writhing model (in vivo analgesia); conditions: iv; administered intravenously
Procedure: as §2

[7] = target: 5-HT Transporter (UniProt P31645); assay: serotonin transporter radioligand binding screen
Procedure: as §1

[8] = target: NE Transporter (Homo sapiens, UniProt P23975); assay: norepinephrine transporter radioligand binding screen
NE Transporter, sequence (P23975 whole entry): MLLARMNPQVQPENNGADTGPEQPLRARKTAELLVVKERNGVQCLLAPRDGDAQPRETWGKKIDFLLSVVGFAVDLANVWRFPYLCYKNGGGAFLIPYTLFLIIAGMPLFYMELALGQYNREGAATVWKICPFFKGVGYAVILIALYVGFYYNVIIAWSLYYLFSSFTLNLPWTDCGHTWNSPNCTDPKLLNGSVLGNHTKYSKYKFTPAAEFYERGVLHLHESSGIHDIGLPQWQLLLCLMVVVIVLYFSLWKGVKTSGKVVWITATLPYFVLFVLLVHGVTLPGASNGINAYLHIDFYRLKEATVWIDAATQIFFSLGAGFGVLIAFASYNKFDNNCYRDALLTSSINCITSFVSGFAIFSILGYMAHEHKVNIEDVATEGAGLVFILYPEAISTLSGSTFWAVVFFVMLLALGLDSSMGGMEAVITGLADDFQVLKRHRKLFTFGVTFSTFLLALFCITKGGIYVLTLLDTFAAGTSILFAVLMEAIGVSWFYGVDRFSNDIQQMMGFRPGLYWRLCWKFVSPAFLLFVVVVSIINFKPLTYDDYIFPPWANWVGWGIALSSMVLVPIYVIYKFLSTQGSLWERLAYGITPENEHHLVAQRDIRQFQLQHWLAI
Procedure: as §1

[9] = tested on: rats; assay: MK-801-induced locomotion and stereotypies, animal model of psychosis; assay type: in vivo, rat; conditions: male Wistar rats; 1.0, 2.5 and 5.0 mg/kg i.p.; 0.3 mg/kg MK-801 i.p.
Excerpt: The non-competitive NMDA receptor antagonist MK-801 induces stereotypies and hyperactivity in rodents (see: Carlsson, M. and Carlsson, A., J. Neural Transm., 75, 221 (1989)) by interacting with the NMDA receptor-associated ion channel. Phencyclidine, which also interferes with the NMDA receptor, produces psychotic effects in humans similar in many respects to schizophrenia. […] The neuroleptics haloperidol, clozapine and raclopride are able to reverse the behavioral changes induced by MK-801 in rats (Gattaz, W. F., Schummer, B. and Behrens, S., J. Neural Transm., 96, 227 (1994)). Therefore the MK-801-induced activity and stereotypies in rats may represent an appropriate animal model to test the potential efficacy of antipsychotic drugs.
Male Wistar rats (Iffa Credo, St Germain/l'Arbresle, France), weight 250-300 g were housed 2 per cage on a 12 h/12 h light dark cycle (lights on at 7.00 a.m.) at a room temperature of 21±2° C. for a minimum of 5 days before testing. All animals had access to commercial food and tap water ad libitum. […]
On the day of the experiment, rats were treated with either reference drug vehicle, the reference drugs haloperidol or clozapine the test compound vehicle or test compounds. […] Stereotypies, defined as wall-contacts with the snout, and locomotion, defined as turn-rounds of 180°, were assessed during 5 minute periods.

SMILES: CS(=O)(=O)N(CC1CCCNC1)c1ccccc1 (stereo not drawn) [Compound 5, N-phenyl-N-piperidin-3-ylmethyl-methanesulfonamide]
IC50 [1]: 108 nM

SMILES: CS(=O)(=O)N(CC1CCCN(CCc2ccccc2)C1)c1ccccc1 (racemic) [Compound 6, N-(1-phenethyl-pieridin-3-ylmethyl)-N-phenyl-methanesulfonamide]
activity in the learned helplessness test [3]: active | ED50 [4]: 23 mg/kg | ED50 [5]: 18 mg/kg | ED50 [6]: 7.8 mg/kg | IC50 [2]: 118 nM

SMILES: CS(=O)(=O)N(C[C@@H]1CCCN(CC2(c3ccc(Cl)cc3)CCC2)C1)c1ccccc1 [Compound 21, N-{1-[1-(4-Chloro-phenyl)-cyclobutylmethyl]-piperidin-3-R-ylmethyl}-N-phenyl-methanesulfon-amide]
IC50 [7]: 2800 nM | IC50 [8]: 62 nM

The next lines start with results.

IC50 [2]: 550 nM
SMILES: CS(=O)(=O)N(C[C@@H]1CCCN(CCc2ccccc2)C1)c1ccccc1 [Compound 12, (R)-N-(1-phenethyl-pieridin-3-ylmethyl)-N-phenyl-methanesulfonamide]

IC50 [2]: 22 nM
SMILES: CS(=O)(=O)N(C[C@H]1CCCN(CCc2ccccc2)C1)c1ccccc1 [Compound 16, (S)-N-(1-phenethyl-pieridin-3-ylmethyl)-N-phenyl-methanesulfonamide]
MK-801-induced locomotion [9]: dose-dependent reduction | MK-801-induced stereotypies [9]: dose-dependent reduction
